Results as given in ChEMBL document CHEMBL1155397, “Synthesis of amino acid conjugates to 2-imino-3-methylene-5-carboxypyrrolidine and 2-imino-3-methylene-6-carboxypiperidine” (2010).

Assays:
Assay type in all cases: functional
Details in all cases: read-out: IZ
[1] = test system: Erwinia amylovora; assay: Antibacterial activity against Erwinia amylovora at 0.1 ug after 12 hrs by agar diffusion assay
[2] = test system: Erwinia amylovora; assay: Antibacterial activity against Erwinia amylovora at 1 ug after 12 hrs by agar diffusion assay
[3] = test system: Erwinia amylovora; assay: Antibacterial activity against Erwinia amylovora at 10 ug after 12 hrs by agar diffusion assay
[4] = test system: Erwinia amylovora; assay: Antibacterial activity against Erwinia amylovora at 100 ug after 12 hrs by agar diffusion assay

Compound: C=C1C[C@@H](C(=O)N[C@H](C(=O)O)C(C)C)NC1=N
- zone of inhibition at 0.1 µg/disc [1]: 10 mm
- zone of inhibition at 1 µg/disc [2]: 19 mm

Compound: C=C1C[C@H](C(=O)N[C@H](C(=O)O)C(C)C)NC1=N
- zone of inhibition at 1 µg/disc [2]: 6 mm
- zone of inhibition at 10 µg/disc [3]: 10 mm
- zone of inhibition at 100 µg/disc [4]: 19 mm

Compound: C=C1C[C@@H](C(=O)N[C@@H](C(=O)O)C(C)C)NC1=N
- zone of inhibition at 100 µg/disc [4]: 10 mm
